Here are results for 25 compounds from PubChem BioAssay AID192 (DTP/NCI, 2004).

Where “and” joins values, the source holds several entries; their conditions need not be identical. Equal entries are not always repeated. Toxic doses and inconclusive results are not listed.

The test concerns BDF1 mice, B16 melanoma ip, median survival T/C. Briefly: NCI In Vivo Anticancer Drug Screen. Data for tumor model B16 Melanoma (intraperitoneal) in B6D2F1 (BDF1) mice. As to conditions: endpoint: median survival time, higher = longer survival. In short, it runs like this:
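Transplantable tumor model; survival or tumor size measured; reported as T/C, treated over vehicle control.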

The mark [1] stands for this setting: dose: 12.5 mg/kg/injection, schedule: Q01DX009 (ip), vehicle: saline with Tween-80.
Where [2] appears, read: dose: 25.0 mg/kg/injection, schedule: Q01DX009 (ip), vehicle: saline with Tween-80.
Setting [3] is: dose: 50.0 mg/kg/injection, schedule: Q01DX009 (ip), vehicle: saline with Tween-80.
Setting [4] is: dose: 100.0 mg/kg/injection, schedule: Q01DX009 (ip), vehicle: saline with Tween-80.
The mark [5] stands for this setting: dose: 50.0 mg/kg/injection, schedule: Q01DX009 (ip), vehicle: Klucel (hydroxypropylcellulose) (HPC).
Setting [6] is: dose: 100.0 mg/kg/injection, schedule: Q01DX009 (ip), vehicle: Klucel (hydroxypropylcellulose) (HPC).
[7] abbreviates: dose: 12.5 mg/kg/injection, schedule: Q01DX009 (ip), vehicle: saline.
The mark [8] stands for this setting: dose: 25.0 mg/kg/injection, schedule: Q01DX009 (ip), vehicle: Klucel (hydroxypropylcellulose) (HPC).
The mark [9] stands for this setting: dose: 25.0 mg/kg/injection, schedule: Q01DX009 (ip), vehicle: saline.
[10] abbreviates: dose: 50.0 mg/kg/injection, schedule: Q01DX009 (ip), vehicle: saline.
Setting [11] is: dose: 6.25 mg/kg/injection, schedule: Q01DX009 (ip), vehicle: Klucel (hydroxypropylcellulose) (HPC).
Setting [12] is: dose: 100.0 mg/kg/injection, schedule: Q01DX009 (ip), vehicle: saline.
Setting [13] is: dose: 200.0 mg/kg/injection, schedule: Q01DX009 (ip), vehicle: saline.
[14] abbreviates: dose: 12.5 mg/kg/injection, schedule: Q01DX009 (ip), vehicle: Klucel (hydroxypropylcellulose) (HPC).
Where [15] appears, read: dose: 200.0 mg/kg/injection, schedule: Q01DX009 (ip), vehicle: Klucel (hydroxypropylcellulose) (HPC).
Where [16] appears, read: dose: 50.0 mg/kg/injection, schedule: Q04DX003 (ip), vehicle: saline.
Where [17] appears, read: dose: 3.12 mg/kg/injection, schedule: Q01DX009 (ip), vehicle: Klucel (hydroxypropylcellulose) (HPC).

As to `CCNc1nc(NC(C)C)nc(OC)n1`, the T/C is, setting by setting: (dose: 6.25 mg/kg/injection, schedule: Q01DX009 (ip), vehicle: saline with Tween-80) 113 % of control; under setting [1], 108 % of control; under setting [2], 110 % of control.
As for `CC(=O)ON=C1C=CC(=C(C#N)c2ccccc2)C=C1`, the T/C is 86 % of control under setting [2], 86 % of control under setting [3] and 92 % of control under setting [4].
As to `CNC(Cc1ccccc1)c1ccc(OC)cc1` (configuration not stated), the T/C by setting is: under setting [5], 96 % of control; under setting [6], 96 % of control.
As to `C[n+]1c2cc(N)ccc2cc2ccc(N)cc21`, the T/C reads like this: (dose: 1.56 mg/kg/injection, schedule: Q01DX009 (ip), vehicle: saline) 107 % of control; (dose: 3.13 mg/kg/injection, schedule: Q01DX009 (ip), vehicle: saline) 117 % of control; (dose: 6.25 mg/kg/injection, schedule: Q01DX009 (ip), vehicle: saline) 115 % of control; under setting [7], 111 % of control.
In the case of `CC(C)(C)OC(=O)NC(COCc1ccccc1)C(=O)O` (configuration not stated), the T/C under setting [3] was 90 % of control and the T/C under setting [4] is 90 % of control.
With `O=[N+]([O-])c1ccc([S][Pb]([c]2ccccc2)([c]2ccccc2)[c]2ccccc2)cc1`, the T/C is, setting by setting: (dose: 6.25 mg/kg/injection, schedule: Q04DX003 (ip), vehicle: Klucel (hydroxypropylcellulose) (HPC)) 94 % of control; (dose: 12.5 mg/kg/injection, schedule: Q04DX003 (ip), vehicle: Klucel (hydroxypropylcellulose) (HPC)) 97 % of control; (dose: 25.0 mg/kg/injection, schedule: Q04DX003 (ip), vehicle: Klucel (hydroxypropylcellulose) (HPC)) 93 % of control; (dose: 50.0 mg/kg/injection, schedule: Q04DX003 (ip), vehicle: Klucel (hydroxypropylcellulose) (HPC)) 88 % of control.
For `O=Nc1c(O)ccc2ccccc12`, the T/C was 90 % of control under setting [8] and 93 % of control under setting [5].
For the compound `Cc1nc(SCc2ccc(Cl)cc2)[nH]c(=O)c1CCO`, the T/C is 100 % of control (dose: 100.0 mg/kg/injection, schedule: Q04DX003 (ip), vehicle: saline with Tween-80); 102 % of control (dose: 200.0 mg/kg/injection, schedule: Q04DX003 (ip), vehicle: saline with Tween-80); 92 % of control (dose: 400.0 mg/kg/injection, schedule: Q04DX003 (ip), vehicle: saline with Tween-80).
Consider `CCN(CC)CCNCCN`, for which the T/C runs as follows: under setting [7], 94 % of control; under setting [9], 97 % of control; under setting [10], 94 % of control.
With `COc1ccccc1N1CCN(CCc2c[nH]c3cc4c(cc23)OCO4)CC1`, the T/C was 89 % of control (dose: 1.56 mg/kg/injection, schedule: Q01DX009 (ip), vehicle: Klucel (hydroxypropylcellulose) (HPC)) and 89 % of control under setting [11].
As to `O=C(O)c1cc(O)ccc1O`, the T/C was 93 % of control under setting [9], 100 % of control under setting [10], 102 % of control under setting [12] and 98 % of control under setting [13].
As for `C=C(Br)CN(CC)CC`, the T/C was 100 % of control under setting [11], 92 % of control under setting [14] and 103 % of control under setting [8].
Take `COc1ccc2c(c1Oc1ccc([N+](=O)[O-])cc1[N+](=O)[O-])C13CCN(C)C(C2)C1CCC1(C3)OCCO1` (configuration not stated): the T/C under setting [6] was 111 % of control and the T/C under setting [15] is 86 % of control.
`C1CC[N-]CC1.CC(=N\O)/C(C)=N/O.CC(=N\O)/C(C)=N/O.[CH-]1CCCCC1.[Co+2]`: the T/C is 97 % of control under setting [5] and 94 % of control under setting [6].
With `CC1(C)N=C(N)N=C(N)N1c1ccc(OCc2ccc(C(=O)Nc3cccc(S(=O)(=O)F)c3)cc2)c(Cl)c1`, the T/C is 119 % of control (dose: 12.5 mg/kg/injection, schedule: Q04DX003 (ip), vehicle: saline with Tween-80) and 166 % of control under setting [16].
Take `CN(C)C1CCN(Cc2ccccc2)CC1`: the T/C runs as follows: under setting [16], 100 % of control; (dose: 100.0 mg/kg/injection, schedule: Q04DX003 (ip), vehicle: saline) 90 % of control; (dose: 200.0 mg/kg/injection, schedule: Q04DX003 (ip), vehicle: saline) 93 % of control.
`CCCCNC(C)[C@]1(O)Cc2c(O)c3c(c(O)c2[C@@H](OC2CC(N)C(O)C(C)O2)C1)C(=O)c1c(OC)cccc1C3=O` (some centres not stated): the T/C was 185 % of control and 198 % of control (dose: 4.7 mg/kg/injection, schedule: Q01DX001 (ip), vehicle: water); 185 % of control and 215 % of control and 270 % of control (dose: 9.4 mg/kg/injection, schedule: Q01DX001 (ip), vehicle: water); 197 % of control and 222 % of control and 263 % of control (dose: 18.8 mg/kg/injection, schedule: Q01DX001 (ip), vehicle: water); 106 % of control (dose: 37.5 mg/kg/injection, schedule: Q01DX001 (ip), vehicle: water).
In the case of `Nc1ncnc2c1ncn2Cc1ccccc1`, the T/C runs as follows: under setting [5], 89 % of control and 90 % of control; under setting [6], 90 % of control and 100 % of control; under setting [15], 86 % of control.
On to `COC1=C2C[C@@H](C)C[C@@H](OC)[C@@H](O)[C@H](C)/C=C(\C)[C@@H](OC(N)=O)[C@H](OC)/C=C\C=C(/C)C(=O)NC(=CC1=O)C2=O`, for which the T/C is 110 % of control (dose: 0.5 mg/kg/injection, schedule: Q01DX005 (ip), vehicle: other); 112 % of control (dose: 0.5 mg/kg/injection, schedule: Q01DX005 (ip), vehicle: saline with Tween-80); 112 % of control and 118 % of control (dose: 0.5 mg/kg/injection, schedule: Q01DX005 (ip), vehicle: water); 110 % of control (dose: 0.5 mg/kg/injection, schedule: Q01DX009 (ip), vehicle: saline with Tween-80); 118 % of control (dose: 1.0 mg/kg/injection, schedule: Q01DX005 (ip), vehicle: saline with Tween-80); 119 % of control (dose: 1.0 mg/kg/injection, schedule: Q01DX005 (ip), vehicle: water). For the same compound, the T/C (dose: 2.0 mg/kg/injection, schedule: Q01DX005 (ip), vehicle: saline with Tween-80) was 118 % of control.
Take `Cc1ccc(NC(=S)N(C)C)cc1C`: the T/C by setting is: under setting [6], 100 % of control; under setting [15], 100 % of control; (dose: 400.0 mg/kg/injection, schedule: Q01DX009 (ip), vehicle: Klucel (hydroxypropylcellulose) (HPC)) 92 % of control.
As to `CN(Cc1cnc2nc(N)nc(N)c2n1)c1c(Cl)cc(C(=O)NC(CCC(=O)O)C(=O)O)cc1Cl` (configuration not stated), the T/C under setting [17] is 116 % of control; the T/C under setting [11] is 111 % of control; the T/C under setting [14] is 116 % of control; the T/C (dose: 17.5 mg/kg/injection, schedule: Q01DX011 (ip), vehicle: saline) is 99 % of control; the T/C under setting [8] was 109 % of control; the T/C (dose: 35.0 mg/kg/injection, schedule: Q01DX011 (ip), vehicle: saline) is 107 % of control. The T/C under setting [5] is 111 % of control.
Take `S=C(Nc1ccccn1)c1ccccn1`: the T/C was 92 % of control under setting [1], 112 % of control under setting [2], 94 % of control under setting [3] and 93 % of control under setting [4].
Take `CN1CCC(CO)C1` (configuration not stated): the T/C by setting is: (dose: 6.25 mg/kg/injection, schedule: Q01DX009 (ip), vehicle: water) 99 % of control; (dose: 12.5 mg/kg/injection, schedule: Q01DX009 (ip), vehicle: water) 109 % of control; (dose: 25.0 mg/kg/injection, schedule: Q01DX009 (ip), vehicle: water) 108 % of control; under setting [10], 100 % of control; (dose: 50.0 mg/kg/injection, schedule: Q01DX009 (ip), vehicle: water) 103 % of control; under setting [12], 97 % of control. Also, under setting [13], the T/C was 91 % of control.
For the compound `Nc1nc(N)nc(-c2ccc([N+](=O)[O-])o2)n1`, the T/C runs as follows: under setting [4], 103 % of control; (dose: 200.0 mg/kg/injection, schedule: Q01DX009 (ip), vehicle: saline with Tween-80) 97 % of control; (dose: 400.0 mg/kg/injection, schedule: Q01DX009 (ip), vehicle: saline with Tween-80) 90 % of control.
For `C[C@@H]1C[C@H]2[C@@H]3CCC4=CC(=O)C=C[C@]4(C)[C@@]3(F)[C@@H](O)C[C@]2(C)[C@@]1(O)C(=O)CO`, the T/C runs as follows: under setting [17], 114 % of control; under setting [11], 107 % of control; under setting [14], 114 % of control; under setting [8], 107 % of control; under setting [5], 115 % of control.
